Laboratory results reported in patent US7081460B2, “Quinazoline and quinazoline-like compounds for the treatment of integrin-mediated disorders” (Ortho-McNeil Pharmaceutical, Inc., priority 2001, dated 2006).
Where two headings read alike, the source gives them in different places.

Experiments:
[1] = molecular target: T1, Human αvβ3 (Homo sapiens, UniProt P05106+P06756); assay: In vitro solid phase purified αvβ3 binding assay (vitronectin/αvβ3)
T1 construct: purchased Chemicon International Inc., Temecula, Calif
T1 sequence (P06756 31-889 limits assumed): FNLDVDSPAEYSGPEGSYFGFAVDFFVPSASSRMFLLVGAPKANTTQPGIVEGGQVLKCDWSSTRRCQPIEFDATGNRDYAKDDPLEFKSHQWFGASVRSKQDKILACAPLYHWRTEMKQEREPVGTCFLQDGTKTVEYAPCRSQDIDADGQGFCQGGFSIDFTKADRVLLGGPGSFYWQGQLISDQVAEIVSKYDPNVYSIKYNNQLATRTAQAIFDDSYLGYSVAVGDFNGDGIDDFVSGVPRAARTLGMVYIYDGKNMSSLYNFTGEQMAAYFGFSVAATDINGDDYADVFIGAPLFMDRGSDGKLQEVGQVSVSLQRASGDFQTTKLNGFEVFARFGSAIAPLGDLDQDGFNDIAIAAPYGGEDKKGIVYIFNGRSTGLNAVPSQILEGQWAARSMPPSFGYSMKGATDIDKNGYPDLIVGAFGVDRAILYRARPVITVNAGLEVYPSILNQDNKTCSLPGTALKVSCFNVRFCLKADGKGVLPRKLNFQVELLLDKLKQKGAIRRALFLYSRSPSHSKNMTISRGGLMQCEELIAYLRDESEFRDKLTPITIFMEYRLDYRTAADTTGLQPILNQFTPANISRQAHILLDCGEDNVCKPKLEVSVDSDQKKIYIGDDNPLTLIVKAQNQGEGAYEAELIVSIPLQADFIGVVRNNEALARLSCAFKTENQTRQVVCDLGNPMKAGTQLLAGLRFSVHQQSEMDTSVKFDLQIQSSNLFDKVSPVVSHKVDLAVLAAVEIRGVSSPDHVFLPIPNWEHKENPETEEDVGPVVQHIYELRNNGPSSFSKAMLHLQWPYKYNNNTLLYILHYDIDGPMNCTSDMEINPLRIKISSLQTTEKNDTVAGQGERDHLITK
T1 sequence (P06756 891-1048 partner limits assumed): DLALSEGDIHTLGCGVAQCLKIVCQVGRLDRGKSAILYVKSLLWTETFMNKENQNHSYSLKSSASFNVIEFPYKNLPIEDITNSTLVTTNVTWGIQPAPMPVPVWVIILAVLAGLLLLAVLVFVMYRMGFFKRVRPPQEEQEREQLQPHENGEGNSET
T1 sequence (P05106 27-788): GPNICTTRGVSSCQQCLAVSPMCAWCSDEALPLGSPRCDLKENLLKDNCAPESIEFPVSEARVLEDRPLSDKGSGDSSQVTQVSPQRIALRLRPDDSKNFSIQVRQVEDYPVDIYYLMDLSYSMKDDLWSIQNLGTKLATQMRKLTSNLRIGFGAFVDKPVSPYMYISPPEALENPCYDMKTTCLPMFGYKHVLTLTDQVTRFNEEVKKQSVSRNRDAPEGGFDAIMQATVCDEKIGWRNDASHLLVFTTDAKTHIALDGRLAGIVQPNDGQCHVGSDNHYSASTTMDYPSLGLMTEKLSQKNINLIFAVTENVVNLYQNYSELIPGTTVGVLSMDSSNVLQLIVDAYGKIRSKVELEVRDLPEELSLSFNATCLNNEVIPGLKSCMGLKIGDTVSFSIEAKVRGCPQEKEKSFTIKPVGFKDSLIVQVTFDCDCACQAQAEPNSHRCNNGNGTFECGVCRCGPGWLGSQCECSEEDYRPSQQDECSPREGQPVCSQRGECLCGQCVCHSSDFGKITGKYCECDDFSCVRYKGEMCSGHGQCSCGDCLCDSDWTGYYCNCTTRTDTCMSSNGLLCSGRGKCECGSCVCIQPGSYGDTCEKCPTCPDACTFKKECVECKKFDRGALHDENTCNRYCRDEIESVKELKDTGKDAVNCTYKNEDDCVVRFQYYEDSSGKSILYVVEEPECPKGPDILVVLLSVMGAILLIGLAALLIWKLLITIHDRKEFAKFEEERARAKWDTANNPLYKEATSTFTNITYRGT
Description: (§1) In vitro Solid Phase Purified αvβ3 Binding Assay The vitronectin/αvβ3 binding assay methods were derived from Mehta et al. (Biochem J. 1998, 330, 861). Human αvβ3 (Chemicon International Inc., Temecula, Calif.), at a concentration of 1 μg/ml dissolved in Tris buffer (20 mM Tris, 1 mM CaCl2, 1 mM MgCl2, 10 μM MnCl2, 150 mM NaCl), was immobilized on Immulon 96 well plates (Dynex Technologies, Chantilly, Va.) overnight at 4° C. Plates were washed and treated with blocking buffer (3% BSA in Tris buffer) for 2 h at 37 C. Plates were then rinsed 2 times in Tris buffer containing 0.3% BSA and 0.2% Tween20 (polyoxyethylenesorbitan monolaurate). Five minutes prior to the addition of 5 nM vitronectin (Sigma, St. Louis, Mo.), compounds of the invention were added to wells in duplicate. Each plate included c-RGDfV as an internal control. Following a 3 hour incubation at 37° C., plates were washed 5 times in assay buffer. An anti-human vitronectin IgG rabbit polyclonal antibody (Calbiochem, San Diego, Calif.) was added (1:2000) and plates were incubated for 1 hour at room temperature. VectaStain ABC peroxidase kit reagents (Vector Laboratories, Burlingame, Calif.) employing a biotin labeled anti-rabbit IgG, were utilized for detection of bound antibody. Plates were read at 490 nm on a Molecular Devices (Sunnyvale, Calif.) microplate reader. […] The plate was covered and incubated overnight at 4° C. The GPIIb/IIIa solution was discarded and 150 μl of 5% BSA was added and incubated at RT for 1–3 h. The plate was washed extensively with modified Tyrodes buffer. Biotinylated fibrinogen (25 μl/well) at 2× final concentration was added to the wells that contain the test compounds (25 μl/well). The plate was covered and incubated at RT for 2–4 h. Twenty minutes prior to incubation completion, one drop of Reagent A (VectaStain ABC Horse Radish Peroxidase kit, Vector Laboratories, Inc.) and one drop Reagent B were added with mixing to 5 mL modified Tyrodes buffer mix and let stand. The ligand solution was discarded and the plate washed (5×200 μl/well) with modified Tyrodes buffer. Vecta Stain HRP-Biotin-Avidin reagent (50 μl/well, as prepared above) was added and incubated at RT for 15 min. The Vecta Stain solution was discarded and the wells washed (5×200 μl/well) with modified Tyrodes buffer. Developing buffer (10 mL of 50 mM citrate/phosphate buffer @ pH 5.3, 6 mg o-phenylenediamine, 6 μl 30% H2O2; 50 μl/well) was added and incubated at rt for 3–5 min, and then 2 N H2SO4 (50 μl/well) was added. The absorbance was read at 490 nm.

[2] = molecular target: GPIIb/IIIa (Homo sapiens, UniProt P05106+P08514); assay: In vitro solid phase purified glycoprotein IIb/IIIa binding assay (biotinylated fibrinogen)
Sequence of GPIIb/IIIa (P08514 32-887 limits assumed): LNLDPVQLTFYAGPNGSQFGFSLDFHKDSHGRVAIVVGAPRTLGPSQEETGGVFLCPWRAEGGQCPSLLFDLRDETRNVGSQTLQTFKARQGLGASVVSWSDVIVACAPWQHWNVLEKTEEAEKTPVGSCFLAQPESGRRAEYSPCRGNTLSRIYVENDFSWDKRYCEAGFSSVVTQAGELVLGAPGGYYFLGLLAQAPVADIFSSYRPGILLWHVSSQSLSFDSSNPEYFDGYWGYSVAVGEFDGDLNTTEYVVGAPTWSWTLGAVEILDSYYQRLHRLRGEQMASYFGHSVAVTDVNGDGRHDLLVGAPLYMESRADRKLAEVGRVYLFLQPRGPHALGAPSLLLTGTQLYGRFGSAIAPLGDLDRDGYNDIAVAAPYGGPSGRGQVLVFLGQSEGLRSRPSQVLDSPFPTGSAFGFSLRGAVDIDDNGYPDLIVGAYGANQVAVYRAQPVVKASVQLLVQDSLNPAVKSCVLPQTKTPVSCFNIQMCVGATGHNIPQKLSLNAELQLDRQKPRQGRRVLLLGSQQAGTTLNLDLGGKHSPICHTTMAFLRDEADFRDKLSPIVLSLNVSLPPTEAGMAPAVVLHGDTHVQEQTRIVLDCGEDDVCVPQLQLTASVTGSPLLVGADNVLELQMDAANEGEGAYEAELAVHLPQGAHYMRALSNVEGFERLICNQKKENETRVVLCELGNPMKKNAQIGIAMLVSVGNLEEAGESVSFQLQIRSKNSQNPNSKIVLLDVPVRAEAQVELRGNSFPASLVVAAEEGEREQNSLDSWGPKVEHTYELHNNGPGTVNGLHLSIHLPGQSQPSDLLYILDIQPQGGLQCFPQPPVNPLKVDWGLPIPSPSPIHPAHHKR
Sequence of GPIIb/IIIa (P08514 891-1039 partner limits assumed): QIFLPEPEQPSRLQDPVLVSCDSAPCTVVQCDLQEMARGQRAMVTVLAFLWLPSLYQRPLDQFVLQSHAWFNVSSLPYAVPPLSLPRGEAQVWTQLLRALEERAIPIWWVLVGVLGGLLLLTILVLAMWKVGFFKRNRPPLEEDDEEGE
Sequence of GPIIb/IIIa (P05106 27-788): as the sequence (P05106 27-788) above
Description: as §1

[3] = isolated human αvβ3, 5 nM vitronectin, read-out: αvβ3 Binding IC50
[4] = RGD-affinity purified GPIIb/IIIa, biotinylated fibrinogen, read-out: GPIIb/IIIa Binding IC50

IC50 [1, 3] [nM] | IC50 [2, 4] [nM] | Structure (SMILES) | IC50 [1] [nM] | IC50 [2] [nM]
0.75 | 24 | Cc1c(C)c(C)c(S(=O)(=O)N[C@@H](Cc2nc3ccc(/C=C/CNC4=NCCN4)cc3c(=O)[nH]2)C(=O)O)c(C)c1C [Compound 1, 6-[(1E)-3-[(4,5-dihydro-1H-imidazol-2-yl)amino]-1-propenyl]-(αS)-3,4-dihydro-4-oxo-α-[[(2,3,4,5,6-pentamethylphenyl)sulfonyl]amino]-2-quinazolinepropanoic Acid] | – | –
140 | 1700 | Cc1c(C)c(C)c(S(=O)(=O)N[C@@H](Cc2nc3ccc(/C=C/CNC(=O)Nc4ccccc4)cc3c(=O)[nH]2)C(=O)O)c(C)c1C [Compound 13, (αS)-3,4-dihydro-4-oxo-α-[[(2,3,4,5,6-pentamethylphenyl)sulfonyl]amino]-6-[(1E)-3-[[(phenylamino)carbonyl]amino]-1-propenyl]-2-quinazolinepropanoic Acid] | – | –
32 | 3900 | COc1cc(C)c(S(=O)(=O)N[C@@H](Cc2nc3ccc(/C=C/CNC(=O)NCc4ccccc4)cc3c(=O)[nH]2)C(=O)O)c(C)c1C [Compound 56, (αS)-3,4-dihydro-α-[[(4-methoxy-2,3,6-trimethylphenyl)sulfonyl]amino]-4-oxo-6-[(1E)-3-[[[(phenylmethyl)amino]carbonyl]amino]-1-propenyl]-2-quinazolinepropanoic acid] | – | –
1800 | 1800 | Cc1c(C)c(C)c(S(=O)(=O)N[C@@H](Cc2nc3ccc(/C=C/CNc4ccc(Cl)cn4)cc3c(=O)[nH]2)C(=O)O)c(C)c1C [Compound 39, 6-[(1E)-3-[(5-chloro-2-pyridinyl)amino]-1-propenyl]-(αS)-3,4-dihydro-4-oxo-α-[[(2,3,4,5,6-pentamethylphenyl)sulfonyl]amino]-2-quinazolinepropanoic acid] | – | –
150 | 1100 | C=C(CNC(=O)NC(C)C)c1ccc2nc(C[C@H](NS(=O)(=O)c3c(C)c(C)c(C)c(C)c3C)C(=O)O)[nH]c(=O)c2c1 [Compound 64, (αS)-3,4-dihydro-6-[1-[[[[(1-methylethyl)amino]carbonyl]amino]methyl]ethenyl]-4-oxo-α-[[(2,3,4,5,6-pentamethylphenyl)sulfonyl]amino]-2-quinazolinepropanoic acid] | – | –
3.2 | 78 | Cc1cc(C)c(S(=O)(=O)N[C@@H](Cc2nc3ccc(/C=C/CNC4=NCCN4)cc3c(=O)[nH]2)C(=O)O)c(C)c1 [Compound 3, 6-[(1E)-3-[(4,5-dihydro-1H-imidazol-2-yl)amino]-1-propenyl]-(αS)-3,4-dihydro-4-oxo-a-[[(2,4,6-trimethylphenyl)sulfonyl]amino]-2-quinazolinepropanoic Acid] | – | –
6.1 | 640 | Cc1c(C)c(C)c(S(=O)(=O)N[C@@H](Cc2nc3ccc(/C=C/CNc4ccccn4)cc3c(=O)[nH]2)C(=O)O)c(C)c1C [Compound 10, (αS)-3,4-dihydro-4-oxo-α-[[(2,3,4,5,6-pentamethylphenyl)sulfonyl]amino]-6-[(1E)-3-(2-pyridinylamino)-1-propenyl]-2-quinazolinepropanoic Acid] | – | –
– | 2700 | Cc1c(C)c(C)c(S(=O)(=O)N[C@@H](Cc2nc3ccc(/C=C/CNC(=O)NCCc4ccccc4)cc3c(=O)[nH]2)C(=O)O)c(C)c1C [Compound 80, (αS)-3,4-dihydro-4-oxo-α-[[(2,3,4,5,6-pentamethylphenyl)sulfonyl]amino]-6-[(1E)-3-[[[(2-phenylethyl)amino]carbonyl]amino]-1-propenyl]-2-quinazolinepropanoic acid] | – | –
– | 6400 | CC(C)(C)c1ccc(S(=O)(=O)N[C@@H](Cc2nc3ccc(/C=C/CNc4ccccn4)cc3c(=O)[nH]2)C(=O)O)cc1 [Compound 23, α-[[[4-(1,1-dimethylethyl)phenyl]sulfonyl]amino]-(αS)-3,4-dihydro-4-oxo-6-[(1E)-3-(2-pyridinylamino)-1-propenyl]-2-quinazolinepropanoic acid] | – | –

The next lines start with the molecule.

Structure (SMILES) | IC50 [1, 3] [nM] | IC50 [2, 4] [nM] | IC50 [1] [nM] | IC50 [2] [nM]
C/C(=C\NC(=O)NC1CCCCC1)c1ccc2nc(C[C@H](NS(=O)(=O)c3c(C)c(C)c(C)c(C)c3C)C(=O)O)[nH]c(=O)c2c1 [Compound 79, 6-[(E)-2-[[(cyclohexylamino)carbonyl]amino]-1-methylethenyl]-(αS)-3,4-dihydro-4-oxo-α-[[(2,3,4,5,6-pentamethylphenyl)sulfonyl]amino]-2-quinazolinepropanoic acid] | > 500 | 7300 | – | –
COc1ccc(S(=O)(=O)N[C@@H](Cc2nc3ccc(/C=C/CNC4=NCCCC4)cc3c(=O)[nH]2)C(=O)O)cc1OC [Compound 60, α-[[(3,4-dimethoxyphenyl)sulfonyl]amino]-(αS)-3,4-dihydro-4-oxo-6-[(1E)-3-[(3,4,5,6-tetrahydro-2-pyridinyl)amino]-1-propenyl]-2-quinazolinepropanoic acid] | 58 | 620 | – | –
COc1ccc(S(=O)(=O)N[C@@H](Cc2nc3ccc(/C=C/CNC(=O)NCc4ccccc4)cc3c(=O)[nH]2)C(=O)O)cc1OC [Compound 54, α-[[(3,4-dimethoxyphenyl)sulfonyl]amino]-(αS)-3,4-dihydro-4-oxo-6-[(1E)-3-[[[(phenylmethyl)amino]carbonyl]amino]-1-propenyl]-2-quinazolinepropanoic acid] | 38 | 5000 | – | –
COc1ccc(S(=O)(=O)N[C@@H](Cc2nc3ccc(/C=C/CNc4ccccn4)cc3c(=O)[nH]2)C(=O)O)cc1 [Compound 26, (αS)-3,4-dihydro-α-[[(4-methoxyphenyl)sulfonyl]amino]-4-oxo-6-[(1E)-3-(2-pyridinylamino)-1-propenyl]-2-quinazolinepropanoic acid] | 15 | 1300 | – | –
COc1ccc(S(=O)(=O)N[C@@H](Cc2nc3ccc(/C=C/CNc4cc(C)ccn4)cc3c(=O)[nH]2)C(=O)O)cc1OC [Compound 46, α-[[(3,4-dimethoxyphenyl)sulfonyl]amino]-(αS)-3,4-dihydro-6-[(1E)-3-[(4-methyl-2-pyridinyl)amino]-1-propenyl]-4-oxo-2-quinazolinepropanoic acid] | 5.8 | 740 | – | –
COc1cccc([C@@H](CC(=O)O)c2nc3ccc(/C=C/CNc4ccccn4)cc3c(=O)[nH]2)c1 [Compound 17, (βR)-3,4-dihydro-β-(3-methoxyphenyl)-4-oxo-6-[(1E)-3-(2-pyridinylamino)-1-propenyl]-2-quinazolinepropanoic Acid] | > 50000 | 18000 | – | –
O=C(N[C@@H](Cc1nc2ccc(-c3cccc(NC4=NCCN4)c3)cc2c(=O)[nH]1)C(=O)O)OCc1ccccc1 [Compound 9, 6-[3-[(4,5-dihydro-1H-imidazol-2-yl)amino]phenyl]-(αS)-3,4-dihydro-4-oxo-α-[[(phenylmethoxy)carbonyl]amino]-2-quinazolinepropanoic Acid] | > 5000 | 88 | – | –
O=C(N[C@@H](Cc1nc2ccc(/C=C/CNC3=NCCC3)cc2c(=O)[nH]1)C(=O)O)OCc1ccccc1 [Compound 67, 6-[(1E)-3-[(3,4-dihydro-2H-pyrrol-5-yl)amino]-1-propenyl]-(αS)-3,4-dihydro-4-oxo-α-[[(phenylmethoxy)carbonyl]amino]-2-quinazolinepropanoic acid] | 420 | 580 | – | –
Cc1ccnc(NC/C=C/c2ccc3nc(C[C@H](NC(=O)OCc4ccccc4)C(=O)O)[nH]c(=O)c3c2)c1 [Compound 69, (αS)-3,4-dihydro-6-[(1E)-3-[(4-methyl-2-pyridinyl)amino]-1-propenyl]-4-oxo-α-[[(phenylmethoxy)carbonyl]amino]-2-quinazolinepropanoic acid] | 490 | 18000 | – | –
COc1ccc(OC(=O)N[C@@H](Cc2nc3ccc(/C=C/CNC(=O)NCc4ccccc4)cc3c(=O)[nH]2)C(=O)O)cc1 [Compound 77, (αS)-3,4-dihydro-α-[[(4-methoxyphenoxy)carbonyl]amino]-4-oxo-6-[(1E)-3-[[[(phenylmethyl)amino]carbonyl]amino]-1-propenyl]-2-quinazolinepropanoic acid] | – | – | > 500 | 46000
